Tested on: sandwich-cultured human hepatocytes
Assay: ERA effect on hepatobiliary disposition of d8-taurocholate (B-CLEAR sandwich culture)
Type: cell-based
Settings: 100 µM control inhibitor
Protocol: Sandwich-cultured human hepatocytes were obtained from Celsis/IVT (Baltimore, MD) or Life Technologies (Durham, NC). Donors were male (n = 3) and female (n = 1) between the ages of 31 and 62 years old. Hepatic uptake, biliary excretion and in vitro biliary clearance (Clb) were determined using the B-CLEAR® hepatocyte sandwich culture model as described by Liu et al., 1999 [34]. In this system, hepatocytes form functional bile canalicular networks while maintaining the expression and function of key uptake and efflux transporters. The canalicular system of bile pockets remains separate from the cellular culture media due to tight junctions between cells. The integrity of these tight junctions is maintained in the presence of calcium (Plus (+) buffer) while in the absence of calcium (Minus (−) buffer), these tight junctions open and release the contents of the canalicular network into the media.
A dose solution containing 2.5 µM d8-taurocholic acid (d8-TCA) was prepared in Plus (+) Buffer. Co-incubation solutions were prepared by combining d8-TCA dose solution and ERA or rifamycin-SV. Hepatocytes were washed and then conditioned for 10 min in warm Plus (+) or Minus (−) buffer with and without ERA or rifamycin-SV. Pre-incubation solutions were then removed and replaced with dose or co-incubation solutions and incubated for 10 min at 37°C. Following this 10 minute incubation, the dose or co-incubation solutions were removed and the cells were then washed three times with ice-cold Plus (+) buffer. The plates were then frozen at −80°C until processed for bioanalysis.
Study samples were stored in their original 24-well plates at −80°C until prepared for analysis. A volume of 500 µL of cell lysis solution (70∶30 methanol:water) containing 25 nM internal standard was added to each well and mixed for 20 min of mixing. The volume in each well was then transferred to a 96-well filter plate stacked on a Greiner deep well collection plate. The filter plate/collection plate was then centrifuged at 2000 rcf for 5 min. The filtrate was then evaporated to dryness under nitrogen. Samples were reconstituted in 200 µL of sample diluent (60∶40 methanol:10 mM ammonium acetate, native pH), sealed, and placed on a plate shaker for 15 min. These samples were then transferred to a Whatman 96-well 0.45 µm PVDF filter plate stacked on a Costar 3956 plate (HPLC injection plate), centrifuged at 2000 rcf for 2–3 min, and sealed with a silicon cap mat prior to LC-MS/MS analysis. d8-TCA standard spiking solutions were prepared in 50∶50 methanol:water. For a given lysate standard or control, 10 µL was added to each well of a previously frozen analytical plate. Standards representing 0.5–100 pmoles/well and QC’s at the LLQ and ULQ were prepared. These lysate standards and controls were then further processed as described above for unknown study samples. Prepared samples were filtered and analyzed by LC-MS/MS using a Shimadzu binary HPLC system (Columbia, MD) and tandem mass spectrometry using Thermo Electron TSQ® Quantum Discovery MAX™ (Waltham, MA) with an Ion Max ESI source operating in negative ion electrospray ionization mode. Results for unknowns and QCs were calculated using a standard curve based on an internal standard processing method.
Data calculations were performed using Microsoft Excel, 2010 with all values reported as mean ± standard deviation (SD). Statistical comparisons across ERA treatments were performed using analysis of variance (ANOVA) with Fisher’s PLSD post hoc analysis (Statview 5.0, SAS Institute, Cary NC); statistical significance was considered to be P<0.05. All mass values were normalized to mg protein by taking the average protein mass in the taurocholate plate determined using a BCA protein assay (Pierce Biotechnology, Rockford, IL). Cellular accumulation determined in Minus (−) buffer (Accumulation Minus (−) Buffer) represents the total mass of analyte inside the hepatocyte at the end of the incubation time period. […]

CO[C@H]1/C=C/O[C@@]2(C)Oc3c(C)c(O)c4c(O)c(cc(O)c4c3C2=O)NC(=O)/C(C)=C\C=C\[C@H](C)[C@H](O)[C@@H](C)[C@@H](O)[C@@H](C)[C@H](OC(C)=O)[C@@H]1C [rifamycin-SV]
d8-TCA Clb in the presence of control inhibitor (untreated control 19.9±7.8): 0.27 ± 0.126 L/h/kg
d8-TCA BEI in the presence of control inhibitor (untreated control 74.7%): 57.1%

— article PMC3907537, “Evaluation of the Endothelin Receptor Antagonists Ambrisentan, Bosentan, Macitentan, and Sitaxsentan as Hepatobiliary Transporter Inhibitors and Substrates in Sandwich-Cultured Human Hepatocytes” (PLoS ONE, 2014)
